{"source": "patent US4762848A", "about": "“1,3-thiazoles and their use as immunomodulators” (Hoechst Aktiengesellschaft, priority 1985, dated 1988)", "assay_type_in_all_cases": "in vivo, NMRI mice", "key": {"[1]": {"tested_on": "mouse peritoneal macrophages", "assay": "Pinocytosis of colloidal gold (198Au) by peritoneal macrophages of treated mice", "procedure": "(§1) This entailed investigation of the effect of the test substance obtained as in exemplary embodiment 7 on the stimulation of peritoneal macrophages in 6-8 week old NMRI mice. Female mice received the test substance in parenteral or oral doses of 25 mg/kg, 50 mg/kg, 100 mg/kg and 200 mg/kg. Buffered saline solution was administered to a control group. The mice were sacrificed three days after the injections, and the peritoneal macrophages of the animals were examined for their state of activation. The secretion of the lysosomal enzymes (β-galactosidase, β-glucuronidase and N-acetyl-β-D-glucosaminidase) was determined as one measure of macrophage activation. […] The level of oxidative metabolism in macrophages is taken as another measure of their state of activation. This activity is measured with the assistance of a biolumate by determination of the chemiluminescence.\n(§2) For this purpose, either 3×10^6 macrophages were cultured with 1 ml of TC 199 culture medium in Petri dishes of diameter 30 mm or 10^6 macrophages were cultured with 100 μl of medium in round-bottomed polyethylene tubes (for determination of the chemiluminescence), with 5% CO2 and at 37° C.\n(§3) After incubation for one hour, the cultures were washed to remove floating cells. The chemiluminescence (tube culture) was then determined directly, whereas the Petri dishes were incubated for a further 24 hours at 37° C. and then the enzyme and pinocytosis activities in the cultures were determined.\nThe quantitative determination of the pinocytosis activity of mononuclear phagocytes was carried out by the method of Davies et al. (Davies, P., Allison, A. C. and Haswell, A. D.; Biochem. Biophys. Res. Com. 52, 627, 1973). Radioactive colloidal gold (^198 Au) with a particle size of 20 nm and a specific activity of 4-12 mCi/mg of Au was used for this. The results in Table 4 illustrate the effect of the test substance obtained as in Example 7 on the efficiency of endocytosis."}, "DTH reaction (SRBC)": {"tested_on": "DTH reaction (SRBC)", "assay": "Stimulation of the DTH reaction, relative to the compound from Example 7", "conditions": "200 mg/kg, 1 × i.p. day 0; Example 7 = 100%", "procedure": "Either 10^6 or 10^9 red blood cells from sheep were administered intravenously to each animal in groups of 5 female NMRI mice weighing 18-20 g. Sheep erythrocytes are regarded in immunology as a standard test substance (antigen) for the induction of cellular and humoral immune reactions. In particular, this test provides information about the functioning of the T-cell-dependent component (T-helper cells) of the immune system. The test substance obtained as in exemplary embodiment 7 ([2-(3-carboxy-1-propylthio)-4 -methyl-1,3-thiazol-5-yl]acetic acid) was administered intraperitoneally and perorally, respectively, […], each animal received 2×10^8 sheep erythrocytes injected into the underside of the foot and, 24 hours later, the swelling of the foot was measured. The foot swelling is induced by a skin reaction of the delayed type (delayed type hypersensitivity, DTH) and is, as is known to the expert, a measure of the cellular immune response (Collins, F. M. and Mackaness, G. B., J. Immunol. 101, 830-845, 1968). The results compiled in Table 1 illustraste that there is an increase in the cellular immune response owing to the administration of the subst nce obtained according to the invention, for example after imnunization with 10^6 or 10^9 sheep erythrocytes. An optimum stimulation can be observed in this experimental design on administration of 20-40 mg/kg test substance.\nNMRI mice were treated with the substances according to the invention as described in experiment 1.\nThe DTH reaction was checked as a test to determine the immunostimulation.\nIt can be seen from the table that the DTH reaction in the animals pretreated with the test substances is more pronounced than in the corresponding control animals."}, "macrophages": {"tested_on": "macrophages", "assay": "Stimulation of macrophage activity (chemiluminescence), relative to the compound from Example 7", "conditions": "100 mg/kg, 1 × i.p. day 0; relative to Example 7 = 100%", "procedure": "as §1, §2, §3\nNMRI mice were treated with the compounds according to the invention as described in experiment 2.\nThe macrophage function (chemiluminescence and enzyme activity) was checked as a test to determine the immunostimulation.\nIt can be seen from the table that in comparison with macrophages from untreated animals, the chemiluminescence reaction of these cells was also greatly stimulated by all the test substances, and their content of lysosomal enzymes was markedly raised."}}}
{"smiles": "Cc1nc(SCCCC(=O)O)sc1CC(=O)O", "note": "[Example 7, [2-(3-Carboxy-1-propylthio)-4-methyl-1,3-thiazol-5-yl]acetic acid]", "values": [{"measurement": "efficiency of pinocytosis of mouse macrophages", "setting": "[1]; 25 mg/kg, 1 × intraperitoneal", "result": "0.415 × 10^3 cpm"}, {"measurement": "efficiency of pinocytosis of mouse macrophages", "setting": "[1]; 25 mg/kg, 1 × oral", "result": "0.365 × 10^3 cpm"}, {"measurement": "efficiency of pinocytosis of mouse macrophages", "setting": "[1]; 50 mg/kg, 1 × intraperitoneal", "result": "0.558 × 10^3 cpm"}, {"measurement": "efficiency of pinocytosis of mouse macrophages", "setting": "[1]; 50 mg/kg, 1 × oral", "result": "0.448 × 10^3 cpm"}, {"measurement": "efficiency of pinocytosis of mouse macrophages", "setting": "[1]; 100 mg/kg, 1 × intraperitoneal", "result": "0.718 × 10^3 cpm"}, {"measurement": "efficiency of pinocytosis of mouse macrophages", "setting": "[1]; 100 mg/kg, 1 × oral", "result": "0.661 × 10^3 cpm"}, {"measurement": "efficiency of pinocytosis of mouse macrophages", "setting": "[1]; 200 mg/kg, 1 × intraperitoneal", "result": "0.862 × 10^3 cpm"}, {"measurement": "efficiency of pinocytosis of mouse macrophages", "setting": "[1]; 200 mg/kg, 1 × oral", "result": "0.739 × 10^3 cpm"}, {"measurement": "DTH reaction (SRBC), relative activity", "setting": "DTH reaction (SRBC)", "result": 100, "unit": "%"}, {"measurement": "Macrophage activity: Chemiluminescence, relative activity", "setting": "macrophages", "result": 100, "unit": "%"}]}
